Data taken from patent US7919508B2, “3-piperidinylisochroman-5-ols as dopamine agonists” (Aventis Pharmaceuticals Inc., priority 2004, dated 2011).
Counter-ions that a name gives are not always drawn.

Tests used:
[1] = target: T1, human dopamine D1 receptor (Homo sapiens, UniProt P21728); experiment: [3H]-SCH-23390 binding to cloned human dopamine D1 receptors (CHO cell membranes); settings: competitive binding, [3H]-SCH-23390, cloned human D1 in CHO membranes; read-out: D1 affinity Ki
T1 construct: A 1.4 Kb Hind III to Xho I fragment was subcloned into the vector pMMLV; expressed in transfected cells; host or cells: CHO cells, clone CHO-D1M#9 (plasmid pHD1MMLV), membranes
T1 sequence (P21728 whole entry, the tested form may be a part): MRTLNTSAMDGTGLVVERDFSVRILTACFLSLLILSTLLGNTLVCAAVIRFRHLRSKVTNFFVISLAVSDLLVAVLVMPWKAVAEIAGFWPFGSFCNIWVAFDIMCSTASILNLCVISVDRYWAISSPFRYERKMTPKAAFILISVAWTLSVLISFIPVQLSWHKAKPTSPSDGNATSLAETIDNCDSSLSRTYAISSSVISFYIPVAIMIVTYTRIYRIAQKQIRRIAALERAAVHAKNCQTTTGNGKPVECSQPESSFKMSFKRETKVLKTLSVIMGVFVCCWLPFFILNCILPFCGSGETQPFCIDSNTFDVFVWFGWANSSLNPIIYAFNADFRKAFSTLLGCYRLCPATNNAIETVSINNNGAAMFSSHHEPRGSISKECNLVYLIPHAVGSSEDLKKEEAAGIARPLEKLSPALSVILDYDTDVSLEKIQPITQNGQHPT
Protocol: [^3H]-SCH-23390 Binding to Cloned Human Dopamine D1 Receptors
Determination of relative binding affinity of potential neuropsychiatric and other agents for the human dopamine D1 receptor.
The human D, cDNA was obtained from the laboratory of Dr. Marc Caron in the vector pCMV5. A 1.4 Kb Hind III to Xho I fragment was subcloned into the vector pMMLV. The plasmid pHD1MMLV was then sequenced completely. Transient transfections in COS-7 cells were performed and D1 specific binding was obtained. The construct pHD1MMLV was then transfected stably into CHO cells and 72 G418-resistant clones were isolated. High expressors were identified by mRNA dot blot analysis. Six high expressors were further characterized by binding and then clone CHO-D1M#9 was chosen for detailed pharmacological characterization. This clone was then grown in suspension culture for the purpose of obtaining enough protein to accommodate several months of screening.
B. Cell Culture Conditions
• 1. […] Cells are transferred to suspension culture when at least […] are available (this allows for 300,000 cells/ml in a 50 ml spinner flask; this is the ideal suspension density). Cells are removed from flasks with trypsin, spun down at 1000×G and resuspended the pellet in fresh medium: • 50% CHO-SFM-II+50% Ham's F12 w/10% FBS (final FBS conc. 5%)+400 μg/ml G418+1% P/S. • 3. After the transfer to suspension culture, growth is monitored and cell viability is assessed using trypan blue exclusion. Total and viable cell count on 5 sectors of the hemocytometer are recorded. When the viable cell density reaches 600,000 cell/ml, the volume is doubled. • 4. After 1 week of growth in the 50/50 medium, the cells are spun down and transferred to a new spinner flask and replaced with 75% CHO-SFM II/25% Ham's F12+10% FBS plus the pen-strep and G418. Thereafter every 3 days, the medium is replaced with new medium containing a decreasing amount of FBS as follows:
• 5. The final maintenance culturing medium is made up as follows: • A stock mixture of 10 ml of pen-strep, 0.5 ml of […] (active; final concentration: 200 μg/ml) G418 and 1 ml of FBS are mixed and filtered and refrigerated. A volume (11.5 ml) of this mixture is added to a freshly opened 1 L bottle of CHO-SFM II. C. Membrane Preparation
Cells are harvested into 250 ml centrifuge tubes and spun down at 1200×G. The medium is removed and 100 ml PBS (phosphate-buffered saline) is added to each centrifuge tube; cells are resuspended and spun down again. The PBS is removed and the final pellet is homogenized with a polytron on ice at a medium setting.
The membrane suspension is diluted in water and samples (10, 50 and 100 μl; q.s. to 100 μl with water) are diluted with 100 μl of 1% SDS. The sample is vortexed and allowed to stand for 5 min. Two aliquots each of the solubilized protein sample are placed in clean 13×100 test tubes for the assay. Instructions are followed as outlined in the BioRad DC protein determination kit (Catalog # 500-0112). OD readings that fall between 0.1-0.5 (mid-range of standard curve) should typically be used for calculations. Protein concentrations are calculated from a standard curve using bovine serum albumin as standard by linear regression and interpolation.
Following cell harvesting and protein determination, the homogenate is diluted with 10% DMSO to the correct volume based on Bmax and relative size of individual experiments to be conducted. The concentrated protein is stored in cryogenic vials in aliquots of 1-1.5 ml. Samples may be stored in −80° C. freezer or in liquid nitrogen.

[2] = target: human dopamine D2Long (D2L) receptors (Homo sapiens, UniProt P14416)
human dopamine D2Long (D2L) receptors, sequence (P14416 whole entry): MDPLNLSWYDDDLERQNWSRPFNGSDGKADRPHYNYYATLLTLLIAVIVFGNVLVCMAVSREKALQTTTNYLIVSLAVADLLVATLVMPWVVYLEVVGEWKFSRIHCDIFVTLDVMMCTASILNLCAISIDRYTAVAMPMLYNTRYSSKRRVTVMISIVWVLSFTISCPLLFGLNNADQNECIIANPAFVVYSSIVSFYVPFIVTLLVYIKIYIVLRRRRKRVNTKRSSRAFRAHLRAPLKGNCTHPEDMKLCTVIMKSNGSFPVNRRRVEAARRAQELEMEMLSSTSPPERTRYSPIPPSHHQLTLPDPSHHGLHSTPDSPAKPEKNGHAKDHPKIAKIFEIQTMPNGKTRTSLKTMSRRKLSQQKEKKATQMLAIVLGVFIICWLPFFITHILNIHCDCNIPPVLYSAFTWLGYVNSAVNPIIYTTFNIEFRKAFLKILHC

SMILES	Ki [1] [nM]	Ki [2] [nM]
Cc1ccc2c(c1O)C[C@@H](C1CCN(S(=O)(=O)c3ccc(Cl)cc3)CC1)O[C@H]2CN [Example 148, (1R,3S)-1-Aminomethyl-3-[1-(4-chloro-benzenesulfonyl)-piperidin-4-yl]-6-methyl-isochroman-5-ol hydrochloride]	183	≥ 100000
Cc1ccc2c(c1O)C[C@@H](C1CCN(S(=O)(=O)c3ccc(Cl)cc3Cl)CC1)O[C@H]2CN [Example 149, (1R,3S)-1-Aminomethyl-3-[1-(2,4-dichloro-benzenesulfonyl)-piperidin-4-yl]-6-methyl-isochroman-5-ol hydrochloride]	213	589
Cc1ccc2c(c1O)C[C@@H](C1CCN(S(=O)(=O)c3ccc(Cl)c(Cl)c3)CC1)O[C@H]2CN [Example 150, (1R,3S)-1-Aminomethyl-3-[1-(3,4-dichloro-benzenesulfonyl)-piperidin-4-yl]-6-methyl-isochroman-5-ol hydrochloride]	256	≥ 100000
Cc1ccc2c(c1O)C[C@@H](C1CCN(S(=O)(=O)c3ccc(-c4ccccc4)cc3)CC1)O[C@H]2CN [Example 152, (1R,3S)-1-Aminomethyl-3-[1-(biphenyl-4-sulfonyl)-piperidin-4-yl]-6-methyl-isochroman-5-ol hydrochloride]	169	≥ 100000
CCS(=O)(=O)N1CCC([C@@H]2Cc3c(ccc(C)c3O)[C@H](CN)O2)CC1 [Example 153, (1R,3S)-1-Aminomethyl-3-(1-ethanesulfonyl-piperidin-4-yl)-6-methyl-isochroman-5-ol hydrochloride]	250	≥ 100000
CCCCS(=O)(=O)N1CCC([C@@H]2Cc3c(ccc(C)c3O)[C@H](CN)O2)CC1 [Example 154, (1R,3S)-1-Aminomethyl-3-[1-(butane-1-sulfonyl)-piperidin-4-yl]-6-methyl-isochroman-5-ol hydrochloride]	270	≥ 100000
Cc1ccc2c(c1O)C[C@@H](C1CCN(S(=O)(=O)C(C)C)CC1)O[C@H]2CN [Example 155, (1R,3S)-1-Aminomethyl-6-methyl-3-[1-(Propane-2-sulfonyl)-piperidin-4-yl]-isochroman-5-ol hydrochloride]	217	≥ 100000
CCCCCCCCS(=O)(=O)N1CCC([C@@H]2Cc3c(ccc(C)c3O)[C@H](CN)O2)CC1 [Example 156, (1R,3S)-1-Aminomethyl-6-methyl-3-[1-(octane-1-sulfonyl)-piperidin-4-yl]-isochroman-5-ol hydrochloride]	139	≥ 100000
Cc1ccc2c(c1O)C[C@@H](C1CCN(S(=O)(=O)Cc3ccc(Cl)c(Cl)c3)CC1)O[C@H]2CN [Example 160, (1R,3S)-1-Aminomethyl-3-[1-(3,4-dichloro-phenylmethanesulfonyl)-piperidin-4-yl]-6-methyl-isochroman-5-ol hydrochloride]	264	≥ 100000
Cc1ccc2c(c1O)C[C@@H](C1CCN(S(=O)(=O)C[C@@]34CC[C@@H](CC3=O)C4(C)C)CC1)O[C@H]2CN [Example 162, 1(R)-[4-((1R,3S)-1-Aminomethyl-5-hydroxy-6-methyl-isochroman-3-yl)-piperidine-1-sulfonylmethyl]-7,7-dimethyl-bicyclo[2.2.1]heptan-2-one hydrochloride]	382	≥ 100000
Cc1ccc2c(c1O)C[C@@H](C1CCN(S(=O)(=O)C[C@]34CC[C@H](CC3=O)C4(C)C)CC1)O[C@H]2CN [Example 163, 1(S)-[4-((1R,3S)-1-Aminomethyl-5-hydroxy-6-methyl-isochroman-3-yl)-piperidine-1-sulfonylmethyl]-7,7-dimethyl-bicyclo[2.2.1]heptan-2-one hydrochloride]	320	≥ 100000
Cc1ccc2c(c1O)C[C@@H](C1CCN(S(=O)(=O)N(C)C)CC1)O[C@H]2CN [Example 164, 4-((1R,3S)-1-Aminomethyl-5-hydroxy-6-methyl-isochroman-3-yl)-piperidine-1-sulfonic acid dimethylamide hydrochloride]	400	≥ 100000
Cc1ccc2c(c1O)C[C@@H](C1CCN(S(=O)(=O)N3CCCCC3)CC1)O[C@H]2CN [Example 165, (1R,3S)-1-Aminomethyl-6-methyl-3-[1-(piperidine-1-sulfonyl)-piperidin-4-yl]-isochroman-5-ol hydrochloride]	227	≥ 10000
Cc1ccc2c(c1O)C[C@@H](C1CCN(S(=O)(=O)N3CCC(Cc4ccccc4)CC3)CC1)O[C@H]2CN [Example 166, (1R,3S)-1-Aminomethyl-3-[1-(4-benzyl-piperidine-1-sulfonyl)-piperidin-4-yl]-6-methyl-isochroman-5-ol hydrochloride]	207	246
Cc1ccc2c(c1O)C[C@@H](C1CCN(Cc3ccccc3)CC1)O[C@H]2CN(C)C [Example 169, (1R,3S)-3-(1-Benzyl-piperidin-4-yl)-1-dimethylaminomethyl-6-methyl-isochroman-5-ol]	158	172
CCN(CC)C[C@@H]1O[C@H](C2CCN(Cc3ccccc3)CC2)Cc2c1ccc(C)c2O [Example 170, (1R,3S)-3-(1-Benzyl-piperidin-4-yl)-1-diethylaminomethyl-6-methyl-isochroman-5-ol]	1670	377
CNC[C@@H]1O[C@H](C2CCN(Cc3ccccc3)CC2)Cc2c1ccc(C)c2O [Example 171, (1R,3S)-3-(1-Benzyl-piperidin-4-yl)-6-methyl-1-methylaminomethyl-isochroman-5-ol]	98	317
CCNC[C@@H]1O[C@H](C2CCN(Cc3ccccc3)CC2)Cc2c1ccc(C)c2O [Example 172, (1R,3S)-3-(1-Benzyl-piperidin-4-yl)-1-ethylaminomethyl-6-methyl-isochroman-5-ol]	522	279
CCN(C)C[C@@H]1O[C@H](C2CCN(Cc3ccccc3)CC2)Cc2c1ccc(C)c2O [Example 173, (1R,3S)-3-(1-Benzyl-piperidin-4-yl)-1-[(ethyl-methyl-amino)-methyl]-6-methyl-isochroman-5-ol]	425	241
CCCNC[C@@H]1O[C@H](C2CCN(Cc3ccccc3)CC2)Cc2c1ccc(C)c2O [Example 174, (1R,3S)-3-(1-Benzyl-piperidin-4-yl)-6-methyl-1-propylaminomethyl-isochroman-5-ol]	510	248
CCCN(C)C[C@@H]1O[C@H](C2CCN(Cc3ccccc3)CC2)Cc2c1ccc(C)c2O [Example 175, (1R,3S)-3-(1-Benzyl-piperidin-4-yl)-6-methyl-1-[(methyl-propyl-amino)-methyl]-isochroman-5-ol]	3070	≥ 10000
C=CCN(C)C[C@@H]1O[C@H](C2CCN(Cc3ccccc3)CC2)Cc2c1ccc(C)c2O [Example 176, (1R,3S)-1-[(Allyl-methyl-amino)-methyl]-3-(1-benzyl-piperidin-4-yl)-6-methyl-isochroman-5-ol]	1700	124
Cc1ccc2c(c1O)C[C@@H](C1CCN(Cc3ccccc3)CC1)O[C@H]2CNC1CCC1 [Example 177, (1R,3S)-3-(1-Benzyl-piperidin-4-yl)-1-cyclobutylaminomethyl-6-methyl-isochroman-5-ol]	≥ 10000	305
